Each structure is given as a SMILES string.

In ChEMBL document CHEMBL5291721, “A preclinical secondary pharmacology resource illuminates target-adverse drug reaction associations of marketed drugs” (Nat Commun, 2023) one finds AC50 data, which are given here for 17 compounds.

In test [1] the target is Adenosine receptor A2a (Homo sapiens, UniProt P29274).
The target in test [2] is T1, Estrogen receptor (Homo sapiens, UniProt P03372).
T1 sequence (P03372 whole entry): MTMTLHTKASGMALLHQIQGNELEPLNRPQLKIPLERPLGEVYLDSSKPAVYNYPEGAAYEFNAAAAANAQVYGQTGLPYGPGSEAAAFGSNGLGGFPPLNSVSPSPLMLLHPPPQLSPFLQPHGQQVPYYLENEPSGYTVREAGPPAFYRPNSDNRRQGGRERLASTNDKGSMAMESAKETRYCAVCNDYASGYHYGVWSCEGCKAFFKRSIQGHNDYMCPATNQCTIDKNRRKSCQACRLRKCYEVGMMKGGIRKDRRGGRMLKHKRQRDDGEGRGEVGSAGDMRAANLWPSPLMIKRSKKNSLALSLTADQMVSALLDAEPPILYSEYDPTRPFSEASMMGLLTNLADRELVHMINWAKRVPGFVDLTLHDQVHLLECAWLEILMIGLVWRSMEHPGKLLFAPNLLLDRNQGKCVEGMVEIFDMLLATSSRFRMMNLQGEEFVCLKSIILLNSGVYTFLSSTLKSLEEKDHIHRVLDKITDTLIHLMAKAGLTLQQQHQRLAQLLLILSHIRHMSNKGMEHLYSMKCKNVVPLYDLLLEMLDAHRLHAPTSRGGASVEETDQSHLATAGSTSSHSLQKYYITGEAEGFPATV

For test [3], the target named is Beta-2 adrenergic receptor (Homo sapiens, UniProt P07550).
Test [4] addresses Voltage-dependent L-type calcium channel subunit alpha-1C (Rattus norvegicus, UniProt P22002). The class given is functional.
Test [5] has as its target T2, Gastrin/cholecystokinin type B receptor (Homo sapiens, UniProt P32239).
T2 sequence (P32239 whole entry): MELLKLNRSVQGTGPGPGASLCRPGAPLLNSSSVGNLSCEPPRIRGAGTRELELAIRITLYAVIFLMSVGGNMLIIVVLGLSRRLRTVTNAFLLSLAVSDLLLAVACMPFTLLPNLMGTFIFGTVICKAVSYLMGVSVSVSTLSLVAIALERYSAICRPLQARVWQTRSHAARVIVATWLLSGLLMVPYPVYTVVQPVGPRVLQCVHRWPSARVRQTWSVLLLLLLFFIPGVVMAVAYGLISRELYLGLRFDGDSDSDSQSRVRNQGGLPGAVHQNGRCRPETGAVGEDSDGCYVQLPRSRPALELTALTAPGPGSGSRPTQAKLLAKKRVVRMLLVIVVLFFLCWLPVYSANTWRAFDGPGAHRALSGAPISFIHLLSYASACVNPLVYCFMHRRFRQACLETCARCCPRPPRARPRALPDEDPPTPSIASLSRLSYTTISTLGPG

Test [6] concerns the target Growth hormone secretagogue receptor type 1 (Homo sapiens, UniProt Q92847).
Test [7] addresses Delta-type opioid receptor (Homo sapiens, UniProt P41143).
For test [8], the target named is T3, Thromboxane A2 receptor (Homo sapiens, UniProt P21731).
T3 sequence (P21731 whole entry): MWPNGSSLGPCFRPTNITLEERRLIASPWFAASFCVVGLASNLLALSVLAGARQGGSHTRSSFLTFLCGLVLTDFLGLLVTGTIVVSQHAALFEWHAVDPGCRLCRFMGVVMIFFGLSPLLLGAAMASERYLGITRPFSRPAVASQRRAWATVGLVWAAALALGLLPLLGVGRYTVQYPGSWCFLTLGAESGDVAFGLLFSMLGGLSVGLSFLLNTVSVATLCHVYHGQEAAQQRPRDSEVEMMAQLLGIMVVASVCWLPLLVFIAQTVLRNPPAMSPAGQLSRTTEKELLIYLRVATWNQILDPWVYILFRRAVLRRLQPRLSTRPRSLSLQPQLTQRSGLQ

Test [9] has as its target Glutamate receptor ionotropic, NMDA 1 (Rattus norvegicus, UniProt P35439).
Test [10] concerns the target 5-hydroxytryptamine receptor 2B (Homo sapiens, UniProt P41595). The class given is functional, cell-based.
Test [11] deals with T4, 5-hydroxytryptamine receptor 1A (Homo sapiens, UniProt P08908).
T4 sequence (P08908 whole entry): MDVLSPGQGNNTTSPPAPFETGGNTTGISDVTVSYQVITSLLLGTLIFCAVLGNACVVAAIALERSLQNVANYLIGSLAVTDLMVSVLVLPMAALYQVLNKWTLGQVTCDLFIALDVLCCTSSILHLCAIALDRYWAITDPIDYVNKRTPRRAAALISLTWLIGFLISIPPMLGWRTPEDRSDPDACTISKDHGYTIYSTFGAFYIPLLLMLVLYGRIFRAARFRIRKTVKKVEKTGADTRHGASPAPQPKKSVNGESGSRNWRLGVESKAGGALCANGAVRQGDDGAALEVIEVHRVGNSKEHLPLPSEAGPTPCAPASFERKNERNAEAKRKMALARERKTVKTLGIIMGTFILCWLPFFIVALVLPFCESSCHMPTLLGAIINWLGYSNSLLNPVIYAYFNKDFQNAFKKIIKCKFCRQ
Format: functional, cell-based.
Further: assay procedure not described here.

Sequence of Adenosine receptor A2a (P29274 whole entry): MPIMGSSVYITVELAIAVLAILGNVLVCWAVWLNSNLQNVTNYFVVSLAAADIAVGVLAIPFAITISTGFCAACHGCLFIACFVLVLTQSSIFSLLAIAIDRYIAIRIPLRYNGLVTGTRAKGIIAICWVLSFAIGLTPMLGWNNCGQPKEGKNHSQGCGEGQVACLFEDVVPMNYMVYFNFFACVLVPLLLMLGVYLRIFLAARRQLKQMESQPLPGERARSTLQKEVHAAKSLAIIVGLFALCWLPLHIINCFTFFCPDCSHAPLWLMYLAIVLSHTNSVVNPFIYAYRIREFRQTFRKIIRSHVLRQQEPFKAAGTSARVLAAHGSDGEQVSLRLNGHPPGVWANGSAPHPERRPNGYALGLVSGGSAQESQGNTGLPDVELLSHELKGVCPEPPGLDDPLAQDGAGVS
Sequence of Voltage-dependent L-type calcium channel subunit alpha-1C (P22002 whole entry): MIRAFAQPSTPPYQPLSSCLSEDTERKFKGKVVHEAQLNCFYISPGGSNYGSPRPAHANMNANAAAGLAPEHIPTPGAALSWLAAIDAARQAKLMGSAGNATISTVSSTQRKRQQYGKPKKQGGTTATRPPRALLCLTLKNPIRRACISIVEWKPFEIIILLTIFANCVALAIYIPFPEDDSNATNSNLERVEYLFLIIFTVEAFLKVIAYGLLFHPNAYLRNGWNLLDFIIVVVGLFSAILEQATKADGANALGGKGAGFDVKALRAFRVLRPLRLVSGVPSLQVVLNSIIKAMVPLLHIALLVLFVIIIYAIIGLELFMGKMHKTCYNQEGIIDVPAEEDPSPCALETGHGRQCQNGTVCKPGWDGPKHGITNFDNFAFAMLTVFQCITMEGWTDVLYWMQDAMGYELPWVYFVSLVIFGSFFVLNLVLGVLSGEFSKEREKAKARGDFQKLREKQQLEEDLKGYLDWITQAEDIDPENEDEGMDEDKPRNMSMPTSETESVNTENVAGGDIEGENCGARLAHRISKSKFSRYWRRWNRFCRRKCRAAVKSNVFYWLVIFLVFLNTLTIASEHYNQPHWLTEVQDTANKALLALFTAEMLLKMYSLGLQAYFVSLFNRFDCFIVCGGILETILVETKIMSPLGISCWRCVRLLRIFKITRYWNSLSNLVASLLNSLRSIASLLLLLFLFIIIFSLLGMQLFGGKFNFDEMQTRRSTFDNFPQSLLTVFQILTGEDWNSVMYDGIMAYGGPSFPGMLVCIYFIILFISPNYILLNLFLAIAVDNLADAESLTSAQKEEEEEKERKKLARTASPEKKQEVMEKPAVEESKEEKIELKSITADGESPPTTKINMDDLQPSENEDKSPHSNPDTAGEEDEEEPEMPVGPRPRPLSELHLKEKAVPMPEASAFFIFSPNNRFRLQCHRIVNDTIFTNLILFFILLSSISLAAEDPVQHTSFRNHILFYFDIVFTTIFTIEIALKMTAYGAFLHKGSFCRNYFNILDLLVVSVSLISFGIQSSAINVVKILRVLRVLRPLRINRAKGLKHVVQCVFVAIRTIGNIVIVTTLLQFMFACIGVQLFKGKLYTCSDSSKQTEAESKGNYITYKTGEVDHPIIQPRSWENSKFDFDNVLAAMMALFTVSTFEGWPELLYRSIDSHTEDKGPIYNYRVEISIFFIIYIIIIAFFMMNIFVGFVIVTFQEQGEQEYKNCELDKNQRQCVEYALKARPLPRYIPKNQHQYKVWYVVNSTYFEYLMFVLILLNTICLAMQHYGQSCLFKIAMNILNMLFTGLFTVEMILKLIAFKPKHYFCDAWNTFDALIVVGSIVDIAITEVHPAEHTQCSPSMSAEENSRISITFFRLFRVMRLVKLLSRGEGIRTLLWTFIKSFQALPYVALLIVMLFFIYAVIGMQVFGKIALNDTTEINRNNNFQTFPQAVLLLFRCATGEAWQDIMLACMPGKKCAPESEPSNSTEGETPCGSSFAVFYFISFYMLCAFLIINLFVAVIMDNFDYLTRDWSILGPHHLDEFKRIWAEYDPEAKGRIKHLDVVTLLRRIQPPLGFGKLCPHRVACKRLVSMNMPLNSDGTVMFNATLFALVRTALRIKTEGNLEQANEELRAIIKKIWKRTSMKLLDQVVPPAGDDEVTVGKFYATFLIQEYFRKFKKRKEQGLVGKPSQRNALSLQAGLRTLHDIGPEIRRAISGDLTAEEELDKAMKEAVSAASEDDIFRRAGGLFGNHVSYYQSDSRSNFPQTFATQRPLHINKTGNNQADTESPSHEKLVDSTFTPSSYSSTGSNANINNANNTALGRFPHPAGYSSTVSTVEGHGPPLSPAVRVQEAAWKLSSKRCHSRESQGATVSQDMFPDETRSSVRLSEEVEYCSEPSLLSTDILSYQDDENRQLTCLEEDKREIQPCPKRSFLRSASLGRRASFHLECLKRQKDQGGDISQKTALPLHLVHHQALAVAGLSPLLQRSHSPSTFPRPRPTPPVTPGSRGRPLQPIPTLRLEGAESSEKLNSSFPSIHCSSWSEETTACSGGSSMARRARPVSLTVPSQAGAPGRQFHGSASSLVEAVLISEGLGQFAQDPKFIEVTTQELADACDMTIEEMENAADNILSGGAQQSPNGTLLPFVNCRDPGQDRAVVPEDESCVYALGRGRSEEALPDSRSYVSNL
Sequence of 5-hydroxytryptamine receptor 2B (P41595 whole entry): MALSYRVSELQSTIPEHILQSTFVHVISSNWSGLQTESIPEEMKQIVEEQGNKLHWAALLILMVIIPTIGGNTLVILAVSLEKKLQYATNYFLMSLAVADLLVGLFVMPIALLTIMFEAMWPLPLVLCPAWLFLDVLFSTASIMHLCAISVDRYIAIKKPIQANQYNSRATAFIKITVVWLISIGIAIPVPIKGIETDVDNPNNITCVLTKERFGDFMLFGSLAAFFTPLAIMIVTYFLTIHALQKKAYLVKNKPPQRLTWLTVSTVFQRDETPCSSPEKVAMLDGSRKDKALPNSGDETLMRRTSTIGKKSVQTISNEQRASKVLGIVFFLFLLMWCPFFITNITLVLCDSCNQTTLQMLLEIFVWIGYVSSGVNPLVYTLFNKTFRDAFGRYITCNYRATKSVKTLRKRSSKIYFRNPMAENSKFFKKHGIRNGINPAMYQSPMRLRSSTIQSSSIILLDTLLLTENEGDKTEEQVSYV
Sequence of Growth hormone secretagogue receptor type 1 (Q92847 whole entry): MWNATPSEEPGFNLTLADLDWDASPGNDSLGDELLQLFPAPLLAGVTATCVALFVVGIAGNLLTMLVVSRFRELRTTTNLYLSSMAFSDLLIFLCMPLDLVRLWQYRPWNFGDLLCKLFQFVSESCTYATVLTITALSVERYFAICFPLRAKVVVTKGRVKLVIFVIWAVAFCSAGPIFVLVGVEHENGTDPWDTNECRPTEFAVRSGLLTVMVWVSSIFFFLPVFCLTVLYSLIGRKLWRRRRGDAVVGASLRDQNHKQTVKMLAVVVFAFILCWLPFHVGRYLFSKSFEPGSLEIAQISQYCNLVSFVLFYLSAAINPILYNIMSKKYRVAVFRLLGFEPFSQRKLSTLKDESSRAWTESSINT
Sequence of Beta-2 adrenergic receptor (P07550 whole entry): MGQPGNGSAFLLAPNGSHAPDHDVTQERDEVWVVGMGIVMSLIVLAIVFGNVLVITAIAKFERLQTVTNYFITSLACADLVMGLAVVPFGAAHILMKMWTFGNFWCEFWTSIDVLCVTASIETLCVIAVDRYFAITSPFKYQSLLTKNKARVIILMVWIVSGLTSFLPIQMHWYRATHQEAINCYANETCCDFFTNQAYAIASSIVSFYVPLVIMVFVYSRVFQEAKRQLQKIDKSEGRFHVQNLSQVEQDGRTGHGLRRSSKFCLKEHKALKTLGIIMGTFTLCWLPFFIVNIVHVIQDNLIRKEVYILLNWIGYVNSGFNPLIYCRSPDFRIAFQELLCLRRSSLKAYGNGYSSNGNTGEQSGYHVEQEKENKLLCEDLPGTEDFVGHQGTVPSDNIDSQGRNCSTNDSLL
Sequence of Delta-type opioid receptor (P41143 whole entry): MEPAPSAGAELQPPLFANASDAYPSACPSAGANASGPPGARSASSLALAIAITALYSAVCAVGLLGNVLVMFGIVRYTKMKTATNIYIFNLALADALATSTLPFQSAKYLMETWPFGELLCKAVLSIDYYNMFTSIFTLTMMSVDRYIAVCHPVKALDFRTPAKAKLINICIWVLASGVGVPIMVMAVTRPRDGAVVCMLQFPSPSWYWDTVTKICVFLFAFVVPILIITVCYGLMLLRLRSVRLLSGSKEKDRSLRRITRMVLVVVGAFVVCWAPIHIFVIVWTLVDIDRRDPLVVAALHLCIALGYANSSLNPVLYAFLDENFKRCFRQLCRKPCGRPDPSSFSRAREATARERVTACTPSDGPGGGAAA

With `O=C(/C=C/c1cccc(S(=O)(=O)Nc2ccccc2)c1)NO` [BELINOSTAT], the AC50 in [1] was greater than 30 µM; in [2], greater than 30 µM; in [3], greater than 10 µM; in test [4], greater than 10 µM; in [5] it was greater than 30 µM; in [6] it was greater than 30 µM. Besides, the figures for the AC50 in [7], in [8] and in test [9] were greater than 30 µM, greater than 30 µM and greater than 10 µM, respectively.
Take `CC(C)c1cccc(C(C)C)c1O` [PROPOFOL]: the AC50 in [1], in test [6], in test [10], in [7] and in test [11] was greater than 30 µM each time.
`C[N+]1(C)CCC(=C(c2ccccc2)c2ccccc2)CC1`: the AC50 in test [1] was greater than 30 µM; in test [3], greater than 10 µM; in test [4], greater than 10 µM; in test [5] it was greater than 30 µM; in [6], greater than 30 µM; in test [10], 29 µM. For the same compound, the AC50 was greater than 30 µM in test [7], greater than 30 µM in [8], greater than 10 µM in [9] and greater than 10 µM in test [11].
For `Cc1ccccc1N1C(=O)c2cc(S(N)(=O)=O)c(Cl)cc2NC1C` (stereo unspecified) [METOLAZONE], the AC50 was greater than 10 µM in test [1]; greater than 10 µM in test [3]; greater than 10 µM in [4]; greater than 10 µM in test [6]; greater than 10 µM in test [10]; greater than 30 µM in [7]. The AC50 in test [8], in test [9] and in test [11] was greater than 10 µM each time.
For `CCCN1CC(NS(=O)(=O)N(CC)CC)CC2Cc3c(O)cccc3CC21` (stereo unspecified) [QUINAGOLIDE], the AC50 in [1], in test [2], in test [3], in test [4], in test [5] and in test [6] was greater than 30 µM in each case. Besides, the AC50 in [7], in test [8] and in test [9] was greater than 30 µM each time.
Regarding `CCC1(c2ccc(N)cc2)CCC(=O)NC1=O` (stereo unspecified) [AMINOGLUTETHIMIDE], the AC50 in [1], in [5], in test [6], in test [7], in test [8] and in test [9] was greater than 30 µM in each case.
As to `CC(=O)O[C@]1(C(C)=O)CC[C@H]2[C@@H]3C=C(Cl)C4=CC(=O)[C@@H]5C[C@@H]5[C@]4(C)[C@H]3CC[C@@]21C` [CYPROTERONE ACETATE], the AC50 in test [1] was greater than 30 µM; in test [3] it was greater than 10 µM; in [4], greater than 10 µM; in test [5], greater than 30 µM; in test [6], greater than 30 µM; in [7], greater than 30 µM. Moreover, the AC50 is greater than 30 µM in test [8] and greater than 10 µM in test [9].
As for `O=S1(=O)CCN(CN2CCS(=O)(=O)NC2)CN1` [TAUROLIDINE], the AC50 in [1], in test [2], in [7], in test [8] and in [9] was greater than 30 µM throughout.
Take `C[C@@H]1C[C@H]2[C@@H]3C[C@H](F)C4=CC(=O)C=C[C@]4(C)[C@@]3(F)[C@@H](O)C[C@]2(C)[C@@]1(OC(=O)c1ccco1)C(=O)SCF` [FLUTICASONE FUROATE]: the AC50 in test [1], in test [3], in test [4], in [5], in test [6] and in [10] was greater than 10 µM throughout. Also, the concentration at half-maximal activity (AC50) in test [7] is greater than 30 µM; in test [8], greater than 10 µM; in test [9], greater than 10 µM; in [11] it was greater than 10 µM.
For the compound `C[C@]12CCC(=O)C[C@@H]1CC[C@@H]1[C@@H]2CC[C@]2(C)[C@@H](O)CC[C@@H]12` [STANOLONE], the AC50 in test [1], in test [3], in test [4], in test [5], in test [6] and in [10] was greater than 30 µM in each case. For the same compound, the AC50 in test [7], in test [8] and in [9] was greater than 30 µM in each case.
With `CCOC(=O)c1ccc(N)cc1` [BENZOCAINE], the AC50 was greater than 10 µM in test [1]; greater than 10 µM in test [3]; greater than 10 µM in [4]; greater than 10 µM in test [6]; greater than 10 µM in [10]; greater than 30 µM in [7]. For the same compound, the AC50 in test [8], in [9] and in test [11] was greater than 10 µM throughout.
As for `CN(C)CCCN1c2ccccc2CCc2ccccc21` [IMIPRAMINE], the AC50 in test [1] was greater than 30 µM; in test [3], greater than 10 µM; in test [5] it was greater than 30 µM; in test [6], greater than 30 µM; in test [10], 5 µM; in test [7], greater than 10 µM. In addition, the AC50 in [8] was greater than 30 µM; in test [11] it was greater than 10 µM.
In the case of `NC[C@H]1CC[C@H](C(=O)Oc2ccc(CCC(=O)O)cc2)CC1` [CETRAXATE], the AC50 in [10], in test [7], in [9] and in test [11] was greater than 30 µM in each case.
Turning to `O=C1OC(OC(=O)c2cccnc2Nc2cccc(C(F)(F)F)c2)c2ccccc21` (stereo unspecified) [TALNIFLUMATE], the AC50 in test [1], in test [5], in test [6], in [10], in [7] and in [8] was greater than 30 µM throughout. In addition, the AC50 in [9] and in test [11] was greater than 30 µM throughout.
On to `Cc1ccccc1-n1c(CF)nc2ccc(N)cc2c1=O` [AFLOQUALONE], for which the AC50 was greater than 30 µM in test [1]; greater than 30 µM in [3]; greater than 10 µM in test [4]; greater than 30 µM in test [5]; greater than 30 µM in test [6]; greater than 10 µM in [10]. Further, the concentration at half-maximal activity (AC50) was greater than 30 µM in [7], greater than 30 µM in test [8], greater than 10 µM in test [9] and greater than 10 µM in [11].
Regarding `CC(O)(CS(=O)(=O)c1ccc(F)cc1)C(=O)Nc1ccc(C#N)c(C(F)(F)F)c1` (stereo unspecified) [BICALUTAMIDE], the concentration at half-maximal activity (AC50) in test [1] is greater than 30 µM; in test [3], greater than 30 µM; in [4] it was greater than 10 µM; in test [5] it was greater than 30 µM; in test [6], 2.2 µM; in test [10], greater than 10 µM. Moreover, the AC50 is greater than 10 µM in test [7], greater than 30 µM in test [8], greater than 10 µM in test [9] and greater than 10 µM in [11].
`CC(Cc1cccc(C(F)(F)F)c1)NCCOC(=O)c1ccccc1` (stereo unspecified) [BENFLUOREX]: the AC50 is greater than 30 µM in test [1]; greater than 30 µM in test [5]; 28 µM in test [6]; 0.495 µM in test [10]; greater than 30 µM in test [7]; greater than 30 µM in test [8]. In test [9], this compound registered an AC50 greater than 30 µM.
